# Data from patent US8952024B2, “Herbicidal pyrimidone derivatives” (E I du Pont de Nemours and Company, priority 2009, dated 2015).
# Like-named read-outs stand apart in the source and are kept apart here.
# What was measured:
# Experiment in all cases: Test B pre-/postemergence plant response
# Assay type in all cases: in vivo
# [1] = tested on: lambsquarters (Chenopodium album)
# Source text: (§1) Seeds of plant species selected from blackgrass (Alopecurus myosuroides), downy bromegrass (Bromus tectorum), green foxtail (Setaria viridis), Italian ryegrass (Lolium multiflorum), wheat (Triticum aestivum), wild oat (Avena fatua), deadnettle (henbit deadnettle, Lamium amplexicaule), galium (catchweed bedstraw, Galium aparine), bermudagrass (Cynodon dactylon), Surinam grass (Brachiaria decumbens), cocklebur (Xanthium strumarium), corn (Zea mays), large crabgrass (Digitaria sanguinalis), woolly cupgrass (Eriochloa villosa), giant foxtail (Setaria faberii), goosegrass (Eleusine indica), johnsongrass (Sorghum halepense), kochia (Kochia scoparia), lambsquarters (Chenopodium album), morningglory (Ipomoea coccinea), nightshade (eastern black nightshade, Solanum ptycanthum), yellow nutsedge (Cyperus esculentus), pigweed (Amaranthus retroflexus), ragweed (common ragweed, Ambrosia elatior), Russian thistle (Salsola kali), soybean (Glycine max), sunflower (common oilseed sunflower, Helianthus annuus) and velvetleaf (Abutilon theophrasti) were planted into a blend of loam soil and sand and treated preemergence with test compounds formulated in a non-phytotoxic solvent mixture which included a surfactant.
# (§2) At the same time, plants selected from these crop and weed species and also winter barley (Hordeum vulgare), canarygrass (Phalaris minor), chickweed (Stellaria media) and windgrass (Apera spica-venti) were planted in pots containing Redi-Earth® planting medium (Scotts Company, 14111 Scottslawn Road, Marysville, Ohio 43041) comprising spaghnum peat moss, vermiculite, wetting agent and starter nutrients and treated with postemergence applications of some of the test chemicals formulated in the same manner. Plants ranged in height from 2 to 18 cm (1- to 4-leaf stage) for postemergence treatments.
# (§3) Treated plants and controls were maintained in a greenhouse for 13 to 15 days, after which time all treated plants were visually evaluated and compared to controls. Plant response ratings, summarized in Table B, are based on a scale of 0 to 100 where 0 is no effect and 100 is complete control. A dash (-) response means no test result.
# [2] = tested on: giant foxtail (Setaria faberii); conditions: for pest or weed control at 31 g/ha: 31 g ai/ha, scale 0 to 100 (0 no effect, 100 complete control); for pest or weed control at 62 g/ha: 62 g ai/ha
# Source text: as §1, §2, §3
# [3] = tested on: pigweed (Amaranthus retroflexus)
# Source text: as §1, §2, §3
# [4] = tested on: green foxtail (Setaria viridis); conditions: for pest or weed control at 31 g/ha: 31 g ai/ha, scale 0 to 100 (0 no effect, 100 complete control); for pest or weed control at 62 g/ha: 62 g ai/ha
# Source text: as §1, §2, §3
# soybean (Glycine max) = tested on: soybean (Glycine max)
# Source text: as §1, §2, §3
# [5] = tested on: cocklebur (Xanthium strumarium)
# Source text: as §1, §2, §3
# [6] = tested on: bermudagrass (Cynodon dactylon); conditions: for pest or weed control at 31 g/ha: 31 g ai/ha, scale 0 to 100 (0 no effect, 100 complete control)
# Source text: as §1, §2, §3
# [7] = Postemergence, 250 g ai/ha, scale 0 to 100
# [8] = Preemergence, 125 g ai/ha, 0 to 100 scale
smiles,measurement,setting,value
"Cc1c(F)cccc1-n1c(-c2ccccc2)ncc(C(=O)C2=C(O)CCCC2=O)c1=O [Compound 47, 3-(3-fluoro-2-methylphenyl)-5-[(2-hydroxy-6-oxo-1-cyclohexen-1-yl)carbonyl]-2-phenyl-4(3H)-pyrimidinone]",Lambsquarters plant response rating,[1]; [7],100
same,Lambsquarters plant response rating,[1]; [8],100
same,"Foxtail, Giant plant response rating",[2]; [7],98
same,"Foxtail, Giant plant response rating",[2]; [8],85
same,pest or weed control at 31 g/ha,"[2]; Setaria faberi, post-emergence, Postemergence, read-out: Plant response rating, Foxtail, Giant",90%
same,pest or weed control at 62 g/ha,"[2]; Setaria faberi, post-emergence, Postemergence, scale 0 (no effect) to 100 (complete control), 13 to 15 days, read-out: Plant response rating, Foxtail, Giant",98%
same,pest or weed control at 125 g/ha,"[2]; Setaria faberi, post-emergence, Postemergence, 125 g ai/ha, visual rating after 13 to 15 days, scale 0 (no effect) to 100 (complete control)",98%
same,pest or weed control at 250 g/ha,"[2]; Setaria faberi, pre-emergence, 250 g ai/ha, Preemergence, 0 to 100 scale, read-out: Plant response rating, Foxtail, Giant",100%
same,pest or weed control at 31 g/ha,"[2]; Setaria faberi, pre-emergence, Preemergence, read-out: Plant response rating, Foxtail, Giant",45%
same,pest or weed control at 62 g/ha,"[2]; Setaria faberi, pre-emergence, Preemergence, scale 0 to 100, 0 no effect, 100 complete control, read-out: Plant response rating, Foxtail, Giant",70%
same,pest or weed control at 62 g/ha,"[3]; Amaranthus retroflexus, post-emergence, Postemergence, 62 g ai/ha, scale 0 (no effect) to 100 (complete control), 13 to 15 days, read-out: Plant response rating, Pigweed",98%
same,pest or weed control at 125 g/ha,"[3]; Amaranthus retroflexus, post-emergence, Postemergence, 125 g ai/ha, visual rating after 13 to 15 days, scale 0 (no effect) to 100 (complete control)",100%
same,pest or weed control at 250 g/ha,"[3]; Amaranthus retroflexus, pre-emergence, 250 g ai/ha, Preemergence, 0 to 100 scale, read-out: Plant response rating, Pigweed",100%
same,pest or weed control at 31 g/ha,"[3]; Amaranthus retroflexus, pre-emergence, Preemergence, 31 g ai/ha, scale 0 to 100 (0 no effect, 100 complete control), read-out: Plant response rating, Pigweed",98%
same,Pigweed plant response rating,[3]; [8],100
same,"Foxtail, Green plant response rating",[4]; [7],95
same,"Foxtail, Green plant response rating",[4]; [8],98
same,pest or weed control at 31 g/ha,"[4]; Setaria viridis, post-emergence, Postemergence, read-out: Plant response rating, Foxtail, Green",80%
same,pest or weed control at 62 g/ha,"[4]; Setaria viridis, post-emergence, Postemergence, scale 0 (no effect) to 100 (complete control), 13 to 15 days, read-out: Plant response rating, Foxtail, Green",90%
same,pest or weed control at 125 g/ha,"[4]; Setaria viridis, post-emergence, Postemergence, 125 g ai/ha, visual rating after 13 to 15 days, scale 0 (no effect) to 100 (complete control)",95%
same,pest or weed control at 250 g/ha,"[4]; Setaria viridis, pre-emergence, 250 g ai/ha, Preemergence, 0 to 100 scale, read-out: Plant response rating, Foxtail, Green",98%
same,pest or weed control at 31 g/ha,"[4]; Setaria viridis, pre-emergence, Preemergence, read-out: Plant response rating, Foxtail, Green",65%
same,pest or weed control at 62 g/ha,"[4]; Setaria viridis, pre-emergence, Preemergence, scale 0 to 100, 0 no effect, 100 complete control, read-out: Plant response rating, Foxtail, Green",80%
same,plant injury at 62 g/ha,"soybean (Glycine max); Glycine max, post-emergence, Postemergence, 62 g ai/ha, scale 0 (no effect) to 100 (complete control), 13 to 15 days, read-out: Plant response rating, Soybean",95%
same,plant injury at 125 g/ha,"soybean (Glycine max); Glycine max, post-emergence, Postemergence, 125 g ai/ha, visual rating after 13 to 15 days, scale 0 (no effect) to 100 (complete control)",98%
same,plant injury at 250 g/ha,"soybean (Glycine max); Glycine max, pre-emergence, 250 g ai/ha, Preemergence, 0 to 100 scale, read-out: Plant response rating, Soybean",0%
same,plant injury at 31 g/ha,"soybean (Glycine max); Glycine max, pre-emergence, Preemergence, 31 g ai/ha, scale 0 to 100 (0 no effect, 100 complete control), read-out: Plant response rating, Soybean",0%
same,Soybean plant response rating,soybean (Glycine max); [8],0
same,Cocklebur plant response rating,[5]; [7],100
same,pest or weed control at 31 g/ha,"[5]; Xanthium strumarium, post-emergence, Postemergence, 31 g ai/ha, scale 0 to 100 (0 no effect, 100 complete control), read-out: Plant response rating, Cocklebur",95%
same,pest or weed control at 125 g/ha,"[5]; Xanthium strumarium, post-emergence, Postemergence, 125 g ai/ha, visual rating after 13 to 15 days, scale 0 (no effect) to 100 (complete control)",95%
same,pest or weed control at 62 g/ha,"[5]; Xanthium strumarium, pre-emergence, Preemergence, 62 g ai/ha, scale 0 to 100, 0 no effect, 100 complete control, read-out: Plant response rating, Cocklebur",0%
same,pest or weed control at 31 g/ha,"[6]; Cynodon dactylon, post-emergence, Postemergence, read-out: Plant response rating, Bermudagrass",85%
same,pest or weed control at 125 g/ha,"[6]; Cynodon dactylon, post-emergence, Postemergence, 125 g ai/ha, visual rating after 13 to 15 days, scale 0 (no effect) to 100 (complete control)",98%
same,pest or weed control at 250 g/ha,"[6]; Cynodon dactylon, pre-emergence, 250 g ai/ha, Preemergence, 0 to 100 scale, read-out: Plant response rating, Bermudagrass",100%
same,pest or weed control at 31 g/ha,"[6]; Cynodon dactylon, pre-emergence, Preemergence, read-out: Plant response rating, Bermudagrass",100%
same,pest or weed control at 62 g/ha,"[6]; Cynodon dactylon, pre-emergence, Preemergence, 62 g ai/ha, scale 0 to 100, 0 no effect, 100 complete control, read-out: Plant response rating, Bermudagrass",100%
same,Bermudagrass plant response rating,[6]; [8],100
